Among the data in patent US8859582B2, “Bicyclic heterocyclic compounds as protein tyrosine kinase inhibitors” (Astex Therapeutics Limited, priority 2007, dated 2014) are IC50 values, retold here.

Usually IC50 stands for the concentration at which inhibition is half-maximal.

In this test the test system is LP-1 cell line. Kind of test: Cell-based pERK ELISA, LP-1 cells. The note with it: LP-1 human multiple myeloma cells, FGF-1/Heparin stimulation; read-out: IC50 against the LP-1 cell line (pERK ELISA). As to the method: Enzyme buffer A: 8 mM MOPS, pH 7.0, 0.2 mM EDTA, 10 mM MgAcetate Enzyme buffer B: 8 mM MOPS, pH 7.0, 0.2 mM EDTA, 2.5 mM MnCl2, 10 mM MgAcetate Enzyme buffer C: 8 mM Mops, pH 7.0, 0.2 mM EDTA, 10 mM MnCl2, 10 mM MgAcetate. Cell-Based pERK ELISA Method
LP-1 or JIM-1 multiple myeloma cells were seeded in 96 well plates at 1×10^6 cells/ml in 200 μl per well in serum free media. HUVEC cells were seeded at 2.5×10^5 cells/ml and allowed to recover for 24 h prior to transfer to serum free media. Cells were incubated for 16 h at 37° C. prior to the addition of a test compound for 30 minutes. Test compounds were administered at a 0.1% final DMSO concentration. Following this 30 minute incubation a FGF-1/Heparin (FGF-1 at 100 ng/ml final and Heparin at 100 ug/ml) mixture or VEGF^165 (100 ug/ml) was added to each of the wells for a further 5 minutes. The media was removed and 50 ul ERK ELISA lysis buffer (R and D Systems DuoSet ELISA for pERK and Total ERK #DYC-1940E, DYC-1018E) added. ELISA plates and standards were prepared according to the standard DuoSet protocols and the relative amounts of pERK to total ERK in each sample calculated according to the standard curve.
In particular, compounds of the invention were tested against the LP-1 cell line (DSMZ no.: ACC 41) derived from human multiple myeloma.

For `O=C(c1ccn2c(-c3cccc(Nc4nncs4)c3)cnc2c1)N1CCC1` [Example 2, Azetidin-1-yl-{3-[3-([1,3,4]thiadiazol-2-ylamino)-phenyl]-imidazo[1,2-a]pyridine-7-yl}-methanone], the IC50 is under 1 µM.
